According to paper PMC10889512, “Pyrimidine Schiff Bases: Synthesis, Structural Characterization and Recent Studies on Biological Activities” (International Journal of Molecular Sciences, 2024):
pIC50: −log10 of the molar value.

Tests used:
A172 cell line = assay: Comet assay (single-cell gel electrophoresis), A172; type: cell-based, human
Method: Single-cell gel electrophoresis was performed to assess the potential genotoxic effect on AGS and A172 after incubation with compound 4b at IC50. This method is based on the ability of damaged DNA to migrate out of the cell during electrophoresis. After DNA staining (Hoechst 33342), the characteristic “comet tail” could be observed under the fluorescence microscope. The damages in 100 randomly selected cells were visually classified into five groups according to the length of the “comet tail”. Group 0 consisted of cells without damaged DNA, while group 4 contained cells with maximally long tails. Based on this, a group damage index (DI) was calculated. The genotoxic effect was found in both examined cell lines. In the case of the A172 cell line, the DNA degradation level seemed to be independent of the incubation time with compound 4b (DNA damage index (DDI) between 77 and 85 over three incubation periods), whereas for AGS cells, genotoxicity was induced in a time-dependent manner (DDI 63, 107, and 111 after 24, 48, and 72 h, respectively).
The comet assay was performed according to the method of Singh et al. with slight modifications. Slides sterilized in 70% ethanol microscope were covered with thin layer of 1% normal melting agarose and left to solidify in a low-humidity environment. Cells were plated in 12-well plates at a density of 1 × 10^5 cells/well and incubated for 24 h in a cell incubator. Next, compound 4b was added in concentrations equal to the IC50 values obtained after the neutral red uptake assay. After 24, 48, and 72 h incubation, cells were harvested, centrifuged, and resuspended in PBS. […] A total of 100 randomly selected cells were scored, and captured comets were classified based on the comet’s tail length as follows: class 0 contained comets with no damaged DNA; class 1, those with low damage; class 2, those with medium damage; class 3, those with high damage; and class 4, those with very high damage. The damage index (DI) was calculated as follows: DI=0×n0+1×n1+2×n2+3×n3+4×n4, n0,1,2,3,4 —the amount of comets in each class.

HeLa = assay: Neutral red uptake assay on HeLa; type: cell-based; conditions: Homo sapiens, 72 h treatment
Method: Based on the results obtained for the RPTEC cell line, the following concentrations of 4b–d were chosen to be applied to neoplastic cell lines: 0.1, 1, 10, 25, 50, and 100 µM. A172, AGS, CaCo-2, HeLa, and HepG2 cancer cell lines were used to perform a neutral red uptake assay. The obtained results were compared with a negative control (cell lines incubated without tested compounds), and half-maximal inhibitory concentration (IC50) values were calculated. Cell lines were plated in 96-well plates at a density of 1 × 10^4 cells/well. After 24 h incubation, which allowed the cells to attach and start to proliferate, the culture media were replaced with 4a–d dissolved in the appropriate medium at concentrations of 1, 10, 50, 100, 150 and 200 µM. […] Negative (1% DMSO in medium) and positive (1 µM staurosporine) controls were also included. Plates were incubated at 37 °C for 24, 48, and 72 h before the neutral red uptake assay. The neutral red uptake assay was performed as described by Repetto et al.. Briefly, the medium from all wells was discarded, the attached cells were washed with 100 µL PBS, and then 100 µL of neutral red working solution in medium (40 µg/mL) was added to each well. The neutral red solution was incubated overnight in the same conditions as the cells and centrifuged before being added to the cells. The plates were incubated for at least 2 h at 37 °C, 5% CO2, in a humidified atmosphere. Next, the neutral red medium was removed, and the cells were washed with 100 µL PBS. A 100 µL quantity of destain solution consisting of 50% ethanol, 1% glacial acetic acid, and deionized water was added to each well. Plates were incubated for 30 min with constant shaking on a horizontal shaker at 37 °C. Absorption was measured at 540 nm excitation. The cells’ viability was calculated by comparing results from experimental sets with negative controls according to the formula: % viability=ODtest substance−ODblind/ODnegative control−ODblind×100

pIC50 (HeLa): < 4.00
SMILES: Cc1nc(-c2ccccc2)nc(Nc2ccc(F)cc2)c1C=Nc1cccc(Cl)c1 [compound 4b, 5-{[(3-chlorophenyl)imino]methyl}-N-(4-fluorophenyl)-6-methyl-2-phenylpyrimidin-4-amine]
DNA damage index (A172 cell line; A172, at IC50, 24 h): 77 arbitrary units
DNA damage index (A172 cell line; A172, at IC50, 48 h): 85 arbitrary units
DNA damage index (A172 cell line; A172, at IC50, 72 h): 78 arbitrary units
